From patent US8623845B1, “Pharmaceutical composition for preventing or treating Diabetes mellitus comprising bisphophonates” (Metacine, Inc., priority 2012, dated 2014) come the findings set out here.

Assay [1] addresses T1, PTP-1B (Homo sapiens, UniProt P18031).
T1 sequence (P18031 1-435): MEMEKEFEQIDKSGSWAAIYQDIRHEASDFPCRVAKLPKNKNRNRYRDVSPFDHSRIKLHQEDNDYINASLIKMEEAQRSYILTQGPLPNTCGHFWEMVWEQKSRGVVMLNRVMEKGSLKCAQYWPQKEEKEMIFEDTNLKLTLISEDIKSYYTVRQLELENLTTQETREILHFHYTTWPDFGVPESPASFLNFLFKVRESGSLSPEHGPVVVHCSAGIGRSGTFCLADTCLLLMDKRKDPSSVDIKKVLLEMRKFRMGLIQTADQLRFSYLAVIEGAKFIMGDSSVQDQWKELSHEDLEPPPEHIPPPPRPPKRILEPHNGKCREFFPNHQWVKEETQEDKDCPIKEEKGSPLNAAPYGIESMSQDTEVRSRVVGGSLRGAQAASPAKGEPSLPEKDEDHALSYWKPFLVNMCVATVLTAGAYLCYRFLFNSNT
Kind of assay: Inhibition of binding PTP-1B with IR (protein chip, anti-IR phosphorylation antibody). The class given is biochemical. The conditions noted are these: mean±SD, n=6. The protocol:
IR molecules stood for 1 hour at 30° C. to induce phosphorylation, and each 1 μl of IR molecules were fixed with protein chips(PeproTech) at 4° C. The protein chips were washed with washing buffer for 10 minutes, and blocked with blocking buffer(3% BSA in PBS, pH 7.4) at room temperature for 1 hour followed by washing with washing buffer. Each sample was as follow:
0. Blank control(C), 0.5 μl PEG (10%, polyethylene glycol)+0.5 μl PTP-1B buffer;
1. Negative control(N), 0.5 μl PEG (10%)+0.5 μl PTP-1B;
2. Positive control(P), 0.5 μl Na3VO4(sodium orthovanadate; 1 mM, pH 10)+0.5 μl PTP-1B;
3. Experimental group(ZA), 0.5 μl ZA (5 μM)+0.5 μl PTP-1B
The protein chips were washed for 10 minutes, and each was treated with 1 μl of anti-IR phosphorylation antibodies diluted by dilution buffer in 1/100 followed by incubating for 1 hour at 30° C. And then, it was washed with washing buffer for 10 minutes, and each was treated with […] of Cy5-fluorescent coupled rabbit anti-IgG antibodies diluted by dilution buffer in 1/100 followed by incubating for 1 hour at 30° C. They were washed for 10 minutes, scanned by microarray scanner system to analyze to GraphPad Prism 4 software.
The results are presented as the mean±SD(%). Statistical analysis was performed using Student's t-test, and P<0.05 was considered as a significance (n=6).

Assay [2] deals with Rat pancreatic islets. The assay is described as follows: Insulin secretion level by hyperglycemia stimulation in primary pancreatic islets. It counts as cell-based, Sprague Dawley rats. The conditions noted are these: 5 μM ZA for 3 days, mean±SD of five experiments.
Description: Rat pancreatic islets were isolated from Sprague Dawley rats (200˜230 g) by digesting the pancreatic duct with collagenase P (1 mg/ml in PBS). After digestion, the islets were separated with Histopaque-1077 (Sigma, St. Louis, Mo.). The primary islets were cultured in RPMI 1640 medium containing 10% fetal bovine serum (FBS), penicillin (100 IU/ml) and streptomycin (100 g/ml). Equal number of primary islet clusters was transferred into micro-centrifuge tube with 1 ml of 10% RPMI 1640, and incubated under normal (5.5 mM glucose) and glucotoxic conditions with or without Zoledronic acid (5 μM) for 3 days. Exposure to glucotoxic conditions was followed by treating with 0.6 mM free fatty acid (FFA; palmitate/oleate, 2:1) and 25 mM glucose in RPMI 1640 with 10% FBS. FFA were complexed with 5% fatty acid-free BSA in PBS. Cultured islets were washed in Krebs-Ringer-bicarbonate (KRB) buffer (130 mM NaCl, 3.6 mM KCl, 1.5 mM CaCl2, 0.5 mM MgSO4, 0.5 mM KH2PO4. 2.0 mM NaHCO2 and 10 mM HEPES) and incubated in KRB buffer for 1 hour followed by further incubation in KRB buffer containing 5.5 mM glucose for 1 hour. Samples were centrifuged at 12,000 g for 1 min and the supernatant was collected for measurement. […] Insulin concentrations from two supernatants removed at two different conditions were measured with a RIA kit (Linco) The results are presented as the mean±SD of five independent experiments. […]

Consider `[Na+].[Na+].[Na+].[O]=[V]([O-])([O-])[O-]` [Na3VO4, sodium orthovanadate], for which the “inhibition effect of binding PTP-1B with IR” value in assay [1] (positive control, Na3VO4 1 mM, pH 10) was 87±4%.
As to `O=P(O)(O)C(O)(Cn1ccnc1)P(=O)(O)O` [ZA, [1-hydroxy-2-(1H-imidazol-1-yl)ethane-1,1-diyl]bis(phosphonic acid)], the insulin secretion level in assay [2] (diabetes mellitus condition (25 mM glucose, glucotoxic), untreated reduced to 52±19% compared to normal condition) stood at 72±34%; in assay [2] (normal condition (5.5 mM glucose), untreated = 100±17%), 82±43%. Further, the inhibition at 5 µM in assay [1] (ZA 5 μM, read-out: inhibition effect of binding PTP-1B with IR) came to 89 ± 21%.

A word on the inhibition: it is the share of the control response that was lost under treatment.
